# Biological target: T1, C5AR1 (Homo sapiens, UniProt P21730)
# T1 construct: host or cells: CHO-K1
# T1 sequence (P21730 1-350): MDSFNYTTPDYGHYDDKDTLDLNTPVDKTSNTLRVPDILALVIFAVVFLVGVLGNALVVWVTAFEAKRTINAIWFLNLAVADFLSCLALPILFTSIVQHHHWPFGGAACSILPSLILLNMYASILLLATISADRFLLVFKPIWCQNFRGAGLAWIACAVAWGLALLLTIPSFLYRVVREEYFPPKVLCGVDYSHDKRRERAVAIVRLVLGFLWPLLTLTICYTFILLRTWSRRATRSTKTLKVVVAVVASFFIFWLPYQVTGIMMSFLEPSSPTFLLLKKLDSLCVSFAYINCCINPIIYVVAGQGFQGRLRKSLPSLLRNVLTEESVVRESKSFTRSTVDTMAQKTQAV
# Assay: hC5a DISCO IC50 assay (PathHunter beta-arrestin, antagonist mode)
# Type: cell-based
# Settings: CHO-K1 C5AR1 beta-arrestin cell line; antagonist vs 1-10 nM C5a agonist; geometric mean values; read-out: C5aR IC50
# Method in brief: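 Antagonist added first, then 1-10 nM C5a agonist; cells incubated 1.5 h at 37 °C. Beta-arrestin signal developed with PathHunter detection reagent, 45 min at RT. IC50 in nmol/l from serial antagonist dilutions, reported as geometric mean of several measurements.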
row,SMILES,IC50
1,"COc1cccc2c1n(Cc1ccccc1C(F)(F)F)c(=O)n2[C@@H]1CCN(C(=O)OC2COC2)C1 [Example 72, (R)-3-[4-Methoxy-2-oxo-3-(2-trifluoromethyl-benzyl)-2,3-dihydro-benzoimidazol-1-yl]-pyrrolidine-1-carboxylic acid oxetan-3-yl ester]",397 nM
2,"COc1cccc2c1n(Cc1ccncc1C(F)(F)F)c(=O)n2C1CCN(c2c(C)cccc2C)CC1 [Example 73, 1-[1-(2,6-Dimethyl-phenyl)-piperidin-4-yl]-4-methoxy-3-(3-trifluoromethyl-pyridin-4-ylmethyl)-1,3-dihydro-benzoimidazol-2-one]",272 nM
3,"COc1cccc2c1n(Cc1ccncc1C(F)(F)F)c(=O)n2C1CCN(c2c(F)cccc2F)CC1 [Example 74, 1-[1-(2,6-Difluoro-phenyl)-piperidin-4-yl]-4-methoxy-3-(3-trifluoromethyl-pyridin-4-ylmethyl)-1,3-dihydro-benzoimidazol-2-one]",1330 nM
4,"COc1cccc2c1n(Cc1ncccc1C(F)(F)F)c(=O)n2C1CCN(c2c(C)cccc2C)CC1 [Example 75, 1-[1-(2,6-Dimethyl-phenyl)-piperidin-4-yl]-4-methoxy-3-(3-trifluoromethyl-pyridin-2-ylmethyl)-1,3-dihydro-benzoimidazol-2-one]",27 nM
5,"COc1cccc2c1n(Cc1ncccc1C(F)(F)F)c(=O)n2C1CCN(c2c(F)cccc2F)CC1 [Example 76, 1-[1-(2,6-Difluoro-phenyl)-piperidin-4-yl]-4-methoxy-3-(3-trifluoromethyl-pyridin-2-ylmethyl)-1,3-dihydro-benzoimidazol-2-one]",38 nM
6,"COc1ccccc1Cn1c(=O)n([C@@H]2CCN(c3c(C)cccc3C)C2)c2ccnc(OC)c21 [Example 77, 1-[(R)-1-(2,6-Dimethyl-phenyl)-pyrrolidin-3-yl]-4-methoxy-3-(2-methoxy-benzyl)-1,3-dihydro-imidazo[4,5-c]pyridin-2-one]",89 nM
7,"COc1ccccc1Cn1c(=O)n([C@@H]2CCN(c3c(C)cccc3F)C2)c2ccnc(OC)c21 [Example 78, 1-[(R)-1-(2-Fluoro-6-methyl-phenyl)-pyrrolidin-3-yl]-4-methoxy-3-(2-methoxy-benzyl)-1,3-dihydro-imidazo[4,5-c]pyridin-2-one]",121 nM
8,"COc1cccc2c1n(Cc1ccccc1C(F)(F)F)c(=O)n2[C@@H]1CCN(c2cc(C)nn2C)C1 [Example 79, 1-[(R)-1-(2,5-Dimethyl-2H-pyrazol-3-yl)-pyrrolidin-3-yl]-4-methoxy-3-(2-trifluoromethyl-benzyl)-1,3-dihydro-benzoimidazol-2-one]",911 nM
9,"COc1cccc2c1n(Cc1ccccc1C(F)(F)F)c(=O)n2[C@@H]1CCN(c2c(Cl)c(C)nn2C)C1 [Example 80, 1-[(R)-1-(4-Chloro-2,5-dimethyl-2H-pyrazol-3-yl)-pyrrolidin-3-yl]-4-methoxy-3-(2-trifluoromethyl-benzyl)-1,3-dihydro-benzoimidazol-2-one]",157 nM
10,"COc1ccccc1Cn1c(=O)n([C@@H]2CCN(c3c(C)cccc3F)C2)c2cc[nH]c(=O)c21 [Example 81, 1-[(R)-1-(2-Fluoro-6-methyl-phenyl)-pyrrolidin-3-yl]-3-(2-methoxy-benzyl)-3,5-dihydro-1H-imidazo[4,5-c]pyridine-2,4-dione]",2430 nM
11,"COc1cccc2c1n(Cc1ccccc1C(F)(F)F)c(=O)n2[C@@H]1CCN(c2c(F)cccc2C#N)C1 [Example 82, 3-Fluoro-2-{(R)-3-[4-methoxy-2-oxo-3-(2-trifluoromethyl-benzyl)-2,3-dihydro-benzoimidazol-1-yl]-pyrrolidin-1-yl}-benzonitrile]",28 nM
12,"COc1cccc2c1n(Cc1ccccc1C(F)(F)F)c(=O)n2[C@@H]1CCN(c2c(F)cccc2C=O)C1 [Example 83, 3-Fluoro-2-{(R)-3-[4-methoxy-2-oxo-3-(2-trifluoromethyl-benzyl)-2,3-dihydro-benzoimidazol-1-yl]-pyrrolidin-1-yl}-benzaldehyde]",23 nM
13,"COc1cccc2c1n(Cc1ccccc1C(F)(F)F)c(=O)n2[C@@H]1CCN(c2nnc(C(F)(F)F)o2)C1 [Example 84, 4-Methoxy-3-(2-trifluoromethyl-benzyl)-1-[(R)-1-(5-trifluoromethyl-[1,3,4]oxadiazol-2-yl)-pyrrolidin-3-yl]-1,3-dihydro-benzoimidazol-2-one]",2030 nM
14,"COc1cccc2c1n(Cc1ccccc1C(F)(F)F)c(=O)n2[C@@H]1CCN(c2c(C)c(C)nn2C)C1 [Example 85, 4-Methoxy-3-(2-trifluoromethyl-benzyl)-1-[(R)-1-(2,4,5-trimethyl-2H-pyrazol-3-yl)-pyrrolidin-3-yl]-1,3-dihydro-benzoimidazol-2-one]",712 nM
15,"COc1cccc2c1n(Cc1ccccc1C(F)(F)F)c(=O)n2[C@@H]1CCN(C(=O)OC2(C(F)(F)F)COC2)C1 [Example 86, (R)-3-[4-Methoxy-2-oxo-3-(2-trifluoromethyl-benzyl)-2,3-dihydro-benzoimidazol-1-yl]-pyrrolidine-1-carboxylic acid 3-trifluoromethyl-oxetan-3-yl ester]",229 nM
16,"COc1cccc2c1n(Cc1ccccc1C(F)(F)F)c(=O)n2[C@@H]1CCN(c2c(C#N)c(C)nn2C)C1 [Example 87, 5-{(R)-3-[4-Methoxy-2-oxo-3-(2-trifluoromethyl-benzyl)-2,3-dihydro-benzoimidazol-1-yl]-pyrrolidin-1-yl}-1,3-dimethyl-1H-pyrazole-4-carbonitrile]",629 nM
17,"COc1cccc2c1n(Cc1ccccc1C(F)(F)F)c(=O)n2[C@@H]1CCN(c2c(F)cccc2CO)C1 [Example 88, 1-[(R)-1-(2-Fluoro-6-hydroxymethyl-phenyl)-pyrrolidin-3-yl]-4-methoxy-3-(2-trifluoromethyl-benzyl)-1,3-dihydro-benzoimidazol-2-one]",39 nM
18,"COc1cccc2c1n(Cc1ccccc1C(F)(F)F)c(=O)n2[C@@H]1CCN(c2c(F)cccc2C(C)O)C1 (stereo partly drawn) [Example 89, 1-{(R)-1-[2-Fluoro-6-(1-hydroxy-ethyl)-phenyl]-pyrrolidin-3-yl}-4-methoxy-3-(2-trifluoromethyl-benzyl)-1,3-dihydro-benzoimidazol-2-one]",44 nM

# More lines, now with the values ahead:
row,IC50,SMILES
1,38 nM,"COc1cccc2c1n(Cc1ccccc1C(F)(F)F)c(=O)n2[C@@H]1CCN(c2c(F)cccc2C(C)=O)C1 [Example 90, 1-[(R)-1-(2-Acetyl-6-fluoro-phenyl)-pyrrolidin-3-yl]-4-methoxy-3-(2-trifluoromethyl-benzyl)-1,3-dihydro-benzoimidazol-2-one]"
2,70 nM,"COc1cccc2c1n(Cc1ccccc1C(F)(F)F)c(=O)n2[C@@H]1CCN(c2c(F)cccc2C(C)(C)O)C1 [Example 91, 1-{(R)-1-[2-Fluoro-6-(1-hydroxy-1-methyl-ethyl)-phenyl]-pyrrolidin-3-yl}-4-methoxy-3-(2-trifluoromethyl-benzyl)-1,3-dihydro-benzoimidazol-2-one]"
3,2020 nM,"COc1cc(Cl)nnc1Cn1c(=O)n([C@@H]2CCN(c3c(C)cccc3F)C2)c2cccc(OC)c21 [Example 92, 3-(6-Chloro-4-methoxy-pyridazin-3-ylmethyl)-1-[(R)-1-(2-fluoro-6-methyl-phenyl)-pyrrolidin-3-yl]-4-methoxy-1,3-dihydro-benzoimidazol-2-one]"
4,149 nM,"Cc1cccc(C)c1N1CC[C@@H](n2c(=O)n(Cc3ccccc3C(F)(F)F)c3c(=O)[nH]ccc32)C1 [Example 93, 1-[(R)-1-(2,6-Dimethyl-phenyl)-pyrrolidin-3-yl]-3-(2-trifluoromethyl-benzyl)-3,5-dihydro-1H-imidazo[4,5-c]pyridine-2,4-dione]"
5,313 nM,"COc1cccc(C)c1N1CC[C@@H](n2c(=O)n(Cc3ccccc3C(F)(F)F)c3c(=O)[nH]ccc32)C1 [Example 94, 1-[(R)-1-(2-Methoxy-6-methyl-phenyl)-pyrrolidin-3-yl]-3-(2-trifluoromethyl-benzyl)-3,5-dihydro-1H-imidazo[4,5-c]pyridine-2,4-dione]"
6,191 nM,"COc1ccnnc1Cn1c(=O)n([C@@H]2CCN(c3c(C)cccc3F)C2)c2cccc(OC)c21 [Example 95, 1-[(R)-1-(2-Fluoro-6-methyl-phenyl)-pyrrolidin-3-yl]-4-methoxy-3-(4-methoxy-pyridazin-3-ylmethyl)-1,3-dihydro-benzoimidazol-2-one]"
7,231 nM,"COc1cccc2c1n(Cc1nccnc1C(F)(F)F)c(=O)n2C1CCN(c2c(F)cccc2C#N)CC1 [Example 96, 3-Fluoro-2-{4-[4-methoxy-2-oxo-3-(3-trifluoromethyl-pyrazin-2-ylmethyl)-2,3-dihydro-benzoimidazol-1-yl]-piperidin-1-yl}-benzonitrile]"
8,1350 nM,"COc1nccnc1Cn1c(=O)n(C2CCN(c3c(F)cccc3C#N)CC2)c2cccc(OC)c21 [Example 97, 3-Fluoro-2-{4-[4-methoxy-3-(3-methoxy-pyrazin-2-ylmethyl)-2-oxo-2,3-dihydro-benzoimidazol-1-yl]-piperidin-1-yl}-benzonitrile]"
9,165 nM,"COC(=O)c1cccc2c1n(Cc1ccccc1C(F)(F)F)c(=O)n2[C@@H]1CCN(c2c(F)cccc2C#N)C1 [Example 98, 1-[(R)-1-(2-Cyano-6-fluoro-phenyl)-pyrrolidin-3-yl]-2-oxo-3-(2-trifluoromethyl-benzyl)-2,3-dihydro-1H-benzoimidazole-4-carboxylic acid methyl ester]"

# From patent US11739070B2, “C5A receptor modulators” (IDORSIA PHARMACEUTICALS LTD, priority 2018, dated 2023)
